Experiment [1] relates to erythroid progenitor cells (EPCs). The experiment can be described thus: Fetal hemoglobin (HbF) ELISA in day 7 erythroid progenitor cells. It counts as cell-based, human. The conditions noted are these: Homo sapiens, Erythroid progenitor cell, HbF ELISA, day 7 EPCs, 5 days; read-out: EPC ELISA (pEC50 category) (converted). How it is done: Day 7 EPCs were cultured in duplicate plates with serially diluted Compound A for 5 days at 37° C. Wells were then analyzed for either induction of fetal hemoglobin (HbF,HbF ELISA) or cell growth (Cell Titer-Glo). In both cases, signal was normalized to vehicle-control treated cells.
Culture, Expansion, and Characterization of Day 7 Erythroid Progenitor Cells (EPC)s
All donors provided written informed consent for use of their samples, and the collection and use of the samples received institutional review board approval. All cryopreserved human bone marrow CD34+ cells used here were obtained from AlICells (Emeryville, Calif.) and were generally from different donors. The CD34+ cells were cultured to generate EPCs at day 7. Briefly, 1 million cells were cultured in 5% CO2, 5% O2 at 37° C. in H3000 Stemspan media (StemCell Technologies Vancouver, BC, Canada) supplemented with 2 mM L-glutamine, 40 μg/mL human low-density lipoproteins (StemCell Technologies), 10 ng/mL recombinant human (rh) interleukin IL-3 (R&D Systems, Minneapolis, Minn.), 100 ng/mL rh stem cell factor (R&D Systems), and 0.5 U/mL rh erythropoietin (Invitrogen, Grand Island, N.Y.). Cells were split and refed on day 4 with complete culture media described above and harvested on day 7 for evaluation of erythroid marker expression and assessment of γ-globin induction. Day 7 EPCs were then frozen in liquid nitrogen at 5 to 10 million cells/mL in 95% fetal bovine serum (FBS; Invitrogen) with 5% DMSO for subsequent use.
At the time of compound treatment, frozen day 7 EPCs prepared as described above were thawed, washed once and re-suspended in complete culture media as described above with the exception of an increase of rhEPO to 3 U/mL. Cells were counted and diluted to […] for plating into assay plates. Cells were then dispensed, at 30 μL per well with Multidrop™ Combi Reagent Dispenser (Thermo Scientific), into 384-well cell culture plates into which test compounds were pre-dispensed at 100 nL/well. Black Clear Bottom (Greiner Bio-One; 781090) and White (Greiner Bio-One; 781080) plates were used for ELISA and Cell Titer-Glo assays, respectively. The final cell density in the assays is 1,000 cells per well, with final compound concentrations between 33 nM (highest) and […] (lowest) for the 22-points serial dilution.
Fetal Hemoglobin (HbF) ELISA
Coating anti-HbF Ab (Bethyl Lab; cat. A80-136A) was diluted by 100-fold in the coating buffer (0.05 M carbonate-bicarbonate, pH 9.6), and then 20 μL/well was added to a 384-well MaxiSorp ELISA plate (Thermo Fisher; cat. 464718). After 1 hour incubation at room temperature, the plates were washed twice with ELISA washing buffer (50 mM Tris, 0.05% Tween 20, pH 8.0) with an EL406 plate washer (BioTek, Winooski, Vt.). Then, 40 μL/well of blocking buffer consisting of 50 mM Tris and 1% BSA (pH 8.0) was added to the plate and stored at 4° C. with cover sheet overnight, or until time of the assay. The coated ELISA plates were stable for up to 30 days at 4° C. On the day of assay, the plates were washed twice with ELISA washing buffer prior to addition of cell lysate.
After 5 days at 37° C. with 5% CO2 cell culture plates for ELISA assay were put into −80° C. freezer for a minimum of 2 hours. After thawing at room temperature, 30 μL of cell lysis buffer (Invitrogen; cat. FNN0011, supplemented with 1× protease inhibitor) was added to each well and the resulting cell lysate was mixed eight times with a Cybi-Well (Jena, Germany) pipettor. Following the mixing procedure, 20 μL/well of lysate was transferred to the coated ELISA plates described above followed by a 1 hour incubation at room temperature. The ELISA assay plates were washed three times with ELISA wash buffer. 20 μL per well of 1:75,000 to 100,000 diluted horseradish peroxidase (HRP) conjugate detection antiHbF Ab (Bethyl Labs; cat. A80-136P, diluted in 50 mM Tris [pH 8.0], 1% BSA, 0.05% Tween-20) was then added. […]

The next experiment deals with DNMT1 (Homo sapiens, UniProt P26358). Kind of experiment: DNMT1 biochemical activity, breaklight assay and/or SPA assay. The conditions noted are these: binned activity in either the breaklight or the SPA assay. How it is done: DNMT1 breaklight in vitro assays were conducted in a total volume of 50 μl in a standard 384 well format, using black non-binding surface microplates (Corning 3575). […] Negative control wells used 5 μl of DNMT1 and 5 μl of oligonucleotide but 0 μM SAM. All reagents were made up in 1× assay buffer (20 mM Tris pH 6.8, 25 mM NaCl, 0.5 mM MgCl2, 0.01% Triton X100 and 1 mM DTT). The reaction was incubated at 26° C. for 45 min and then stopped with the addition of 40 μl detection reagent. Detection reagent, made up in 1× Gla assay buffer (20 mM Tris pH 8.0, 80 mM NaCl, 0.75 mM MgCl2, 0.01% Triton X100 and 1 mM DTT) has a final concentration of 100 μM SAH (Sigma #A9384) and 0.0008 units/μl Gla1 restriction endonuclease (Sibenzyme #E494). Following addition of the detection reagent the plate was incubated in the dark at room temperature for 5 hr. Fluorescence intensity was then measured on the PHERAstar FS (BMG Labtech) at Ex 485 nm and Em 520 nm, with a gain of 400 and an integration time of 100 ms.
Biochemical activity of DNMT1 analyzed using SPA technology. Plates (Griener 784075) were pre-stamped with 100 nL/well of compound (11-point, 3-fold serial dilution). […] Low control wells contained 5 μL of buffer instead of enzyme. Following a 40 minute incubation, the reaction was quenched upon the addition of 10 μL of stop mixture containing 1 mM SAM (Sigma A7007) and 2 mg/mL PEI beads (Perkin Elmer RPNQ0098). Plates were sealed, centrifuged for 1 min and then read on a Viewlux (Perkin Elmer) using the 613 nm emission filter/300 s read time following a 30 minute dark adapt. Assay conditions prior to quench consisted of 40 nM DNMT1 (601-1600, produced internally), 100 nM 3H-SAM (American Radiolabeled Chemicals ART 0288), 900 nM SAM (New England BioLabs B9003S) and 200 nM hemi methylated DNA oligonucleotide (synthesized at Integrated DNA Technologies, 5′-[…]-3′) in 50 mM HEPES (pH 8.0), 2 mM MgCl2, 1 mM DTT, 0.01% NP-40 and 0.01% BSA.
Comments • 1. […] Where a field is empty, the compound was not tested in that assay.

Each structure is given as a SMILES string. Counter-ions that a name gives are not always drawn.

From patent publication US10975056B2 (GlaxoSmithKline Intellectual Property Development Limited, priority 2016, dated 2021) come the findings set out here.

Chain of DNMT1 (P26358 whole entry, looked up): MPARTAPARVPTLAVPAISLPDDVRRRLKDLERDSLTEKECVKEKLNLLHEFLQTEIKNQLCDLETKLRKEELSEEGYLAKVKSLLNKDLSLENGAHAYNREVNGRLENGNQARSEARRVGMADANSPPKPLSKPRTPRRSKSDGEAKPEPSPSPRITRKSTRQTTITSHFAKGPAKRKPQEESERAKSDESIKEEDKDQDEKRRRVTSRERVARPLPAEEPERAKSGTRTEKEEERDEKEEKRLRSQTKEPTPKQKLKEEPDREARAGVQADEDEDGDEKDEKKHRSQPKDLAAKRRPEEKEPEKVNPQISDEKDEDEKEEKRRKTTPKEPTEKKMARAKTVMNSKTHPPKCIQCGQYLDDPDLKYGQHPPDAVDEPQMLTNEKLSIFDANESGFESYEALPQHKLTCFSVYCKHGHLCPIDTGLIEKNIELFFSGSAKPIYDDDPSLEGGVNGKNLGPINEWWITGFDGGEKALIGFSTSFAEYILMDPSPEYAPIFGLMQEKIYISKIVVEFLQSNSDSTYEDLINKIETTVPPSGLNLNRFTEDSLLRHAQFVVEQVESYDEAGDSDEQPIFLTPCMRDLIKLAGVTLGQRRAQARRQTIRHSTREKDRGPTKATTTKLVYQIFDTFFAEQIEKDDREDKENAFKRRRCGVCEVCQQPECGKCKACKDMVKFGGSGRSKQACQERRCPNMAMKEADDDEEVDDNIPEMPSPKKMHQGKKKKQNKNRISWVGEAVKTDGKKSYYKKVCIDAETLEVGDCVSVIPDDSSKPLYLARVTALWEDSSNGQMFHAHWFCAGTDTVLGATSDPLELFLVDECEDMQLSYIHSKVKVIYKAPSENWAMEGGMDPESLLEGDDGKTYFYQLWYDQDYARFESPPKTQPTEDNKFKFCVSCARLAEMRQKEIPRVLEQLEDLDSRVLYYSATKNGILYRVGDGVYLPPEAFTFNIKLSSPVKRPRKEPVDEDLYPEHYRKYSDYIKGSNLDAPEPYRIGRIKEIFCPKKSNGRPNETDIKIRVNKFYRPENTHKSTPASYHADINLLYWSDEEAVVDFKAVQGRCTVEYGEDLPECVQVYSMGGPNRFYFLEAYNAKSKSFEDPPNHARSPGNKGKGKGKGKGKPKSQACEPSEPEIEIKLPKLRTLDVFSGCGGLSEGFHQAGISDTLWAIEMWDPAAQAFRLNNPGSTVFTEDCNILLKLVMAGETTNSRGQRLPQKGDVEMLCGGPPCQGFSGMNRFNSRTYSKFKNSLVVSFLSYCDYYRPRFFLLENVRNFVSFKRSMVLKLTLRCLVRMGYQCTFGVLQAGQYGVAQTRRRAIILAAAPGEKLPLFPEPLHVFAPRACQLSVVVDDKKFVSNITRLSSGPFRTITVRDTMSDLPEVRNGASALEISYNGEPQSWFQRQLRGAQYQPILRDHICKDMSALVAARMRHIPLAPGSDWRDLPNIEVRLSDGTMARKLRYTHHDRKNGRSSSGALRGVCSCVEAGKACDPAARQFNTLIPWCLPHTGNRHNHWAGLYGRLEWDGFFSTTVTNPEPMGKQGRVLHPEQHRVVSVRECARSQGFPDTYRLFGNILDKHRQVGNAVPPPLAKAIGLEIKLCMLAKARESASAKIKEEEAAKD

`CCc1c(C#N)c(SCc2ccc(CNC(C)=O)cc2)nc(N2CC(OC(=O)[C@@H](N)C(C)C)C2)c1C#N` [Example 282, (S)-1-(6-((4-(Acetamidomethyl)benzyl)thio)-3,5-dicyano-4-ethylpyridin-2-yl)azetidin-3-yl 2-amino-3-methylbutanoate, Trifluoroacetic Acid Salt]: the EC50 in experiment [1] was 1000 to 31600 nM. For the same compound, the “DNMT1 BioChemical (pIC50 category)” value at DNMT1 is given as “D (Category D: ≥6.5)”. The corresponding values for `CCc1c(C#N)c(SC(C(N)=O)c2ccc(C(F)(F)F)cc2)nc(N2CCC(NCC(C)(C)C)CC2)c1C#N` (stereo not drawn) [Example 532, 2-((3,5-dicyano-4-ethyl-6-(4-(neopentylamino)piperidin-1-yl)pyridin-2-yl)thio)-2-(4-(trifluoromethyl)phenyl)acetamide] are less than 316 nM and “D (Category D: ≥6.5)”. The corresponding values for `CCc1c(C#N)c(SC(C(N)=O)c2ccccc2)nc(N(C)CCN2CC[C@H](N(C)C)C2)c1C#N` (stereo partly drawn) [Example 517, 2-((3,5-dicyano-6-((2-((S)-3-(dimethylamino)pyrrolidin-1-yl)ethyl)(methyl)amino)-4-ethylpyridin-2-yl)thio)-2-phenylacetamide] are less than 316 nM and “D (Category D: ≥6.5)”. Turning to `N#Cc1c(SC(C(N)=O)c2ccccc2)nc(N2CC(NC(=O)[C@H](N)CO)C2)c(C#N)c1C1CC1` (stereo partly drawn) [Example 614, (2R)-2-amino-N-(1-(6-((2-amino-2-oxo-1-phenylethyl)thio)-3,5-dicyano-4-cyclopropylpyridin-2-yl)azetidin-3-yl)-3-hydroxypropanamide], in experiment [1], the EC50 is 1000 to 31600 nM. On DNMT1, the “DNMT1 BioChemical (pIC50 category)” value is given as “D (Category D: ≥6.5)”. The corresponding values for `CCc1c(C#N)c(SCc2ccc(CNC(=O)[C@@H](C)N)cc2)nc(N2CCCN(C)CC2)c1C#N` [Example 98, (R)-2-Amino-N-(4-(((3,5-dicyano-4-ethyl-6-(4-methyl-1,4-diazepan-1-yl)pyridin-2-yl)thio)methyl)benzyl)propanamide] are greater than 31600 nM and “D (Category D: ≥6.5)”.

On to `CCc1c(C#N)c(SC(C(N)=O)c2ccccn2)nc(N2CC[C@H](O)C2)c1C#N` (stereo partly drawn) [Example 322, 2-((3,5-Dicyano-4-ethyl-6-((S)-3-hydroxypyrrolidin-1-yl)pyridin-2-yl)thio)-2-(pyridin-2-yl)acetamide], for which, in experiment [1], the EC50 was 316 to 1000 nM. Besides, on DNMT1, the “DNMT1 BioChemical (pIC50 category)” value is given as “D (Category D: ≥6.5)”. For the compound `CCc1c(C#N)c(SC(C(N)=O)c2ccccc2)nc(N(C)CC(=O)NCCO)c1C#N` (stereo not drawn) [Example 669, 2-((6-((2-amino-2-oxo-1-phenylethyl)thio)-3,5-dicyano-4-ethylpyridin-2-yl)(methyl)amino)-N-(2-hydroxyethyl)acetamide], the EC50 in experiment [1] is less than 316 nM. The “DNMT1 BioChemical (pIC50 category)” value at DNMT1 was “D (Category D: ≥6.5)”. On the same counts, the results for `CCc1c(C#N)c(S[C@@H](C(N)=O)c2ccccc2)nc(N2CCO[C@H](CNC(=O)CO)C2)c1C#N` [Example 599, N-(((R)-4-(6-(((R)-2-amino-2-oxo-1-phenylethyl)thio)-3,5-dicyano-4-ethylpyridin-2-yl)morpholin-2-yl)methyl)-2-hydroxyacetamide] are 1000 to 31600 nM and “D (Category D: ≥6.5)”. As to `[2H]C(Sc1nc(N(C)C)c(C#N)c(CC)c1C#N)(C(N)=O)c1ccccc1` (stereo not drawn) [Example 305, 2-((3,5-Dicyano-6-(dimethylamino)-4-ethylpyridin-2-yl)thio)-2-phenylacetamide-2-d], the EC50 in experiment [1] is 316 to 1000 nM. On the same count and under the same terms, under `CCc1c(C#N)c(SC(C(N)=O)c2ccccc2)nc(N2CCC(NCC3(C)CCC3)CC2)c1C#N` (stereo not drawn) [Example 466, 2-((3,5-dicyano-4-ethyl-6-(4-(((1-methylcyclobutyl)methyl)amino)piperidin-1-yl)pyridin-2-yl)thio)-2-phenylacetamide] stands less than 316 nM; under `CCc1c(C#N)c(SC(C(N)=O)c2ccccc2)nc(N2CCC(N)CC2)c1C#N` (stereo not drawn) [Example 143, 2-((6-(4-Aminopiperidin-1-yl)-3,5-dicyano-4-ethylpyridin-2-yl)thio)-2-phenylacetamide], less than 316 nM. Still for that read-out and setting: with `[2H]C([2H])([2H])N(c1nc(SC(C(N)=O)c2ccccc2)c(C#N)c(CC)c1C#N)C([2H])([2H])[2H]` (stereo not drawn) [Example 404, 2-((3,5-Dicyano-6-(dimethylamino-d6)-4-ethylpyridin-2-yl)thio)-2-phenylacetamide] the figure was 316 to 1000 nM; with `CCc1c(C#N)c(S[C@H](C(N)=O)c2ccccc2)nc(N2CCC(N)CC2)c1C#N` [Example 605, (S)-2-((6-(4-aminopiperidin-1-yl)-3,5-dicyano-4-ethylpyridin-2-yl)thio)-2-phenylacetamide, Hydrochloride], less than 316 nM; with `[2H][C@](Sc1nc(N(C)C)c(C#N)c(CC)c1C#N)(C(N)=O)c1ccccc1` [Example 308, (R)-2-((3,5-Dicyano-6-(dimethylamino)-4-ethylpyridin-2-yl)thio)-2-phenylacetamide-2-d], 316 to 1000 nM. Still for that read-out and setting: with `CCc1c(C#N)c(SC(C(N)=O)c2ccccc2)nc(N(C)CC(=O)N2CC[C@@H](CO)C2)c1C#N` (stereo partly drawn) [Example 652, 2-((3,5-dicyano-4-ethyl-6-((2-((R)-3-(hydroxymethyl)pyrrolidin-1-yl)-2-oxoethyl)(methyl)amino)pyridin-2-yl)thio)-2-phenylacetamide] the figure was less than 316 nM; with `CCc1c(C#N)c(S[C@@H](C(N)=O)c2ccccc2)nc(N2CCC(N)CC2)c1C#N` [Example 412, (R)-2-((6-(4-aminopiperidin-1-yl)-3,5-dicyano-4-ethylpyridin-2-yl)thio)-2-phenylacetamide, Hydrochloride], less than 316 nM.
